Reference: ChEMBL document CHEMBL5537130, “Structure-based design of potent FABP4 inhibitors with high selectivity against FABP3” (Eur J Med Chem, 2024)

Tests used:
[1] = in vitro; settings: human, liver microsomes
Description: Metabolic stability in human liver microsomes assessed as half life at 1 uM preincubated with compound for 10 mins followed by NADPH addition and measured upto 60 mins by LC-MS/MS analysis

[2] = in vitro; settings: human, liver microsomes; remark: listed apart in the source
Description: Metabolic stability in human liver microsomes assessed as metabolic bioavailability at 1 uM preincubated with compound for 10 mins followed by NADPH addition and measured upto 60 mins by LC-MS/MS analysis

[3] = in vitro; settings: mouse, liver microsomes
Description: Metabolic stability in mouse liver microsomes assessed as metabolic bioavailability at 1 uM preincubated with compound for 10 mins followed by NADPH addition and measured upto 60 mins by LC-MS/MS analysis

[4] = in vitro; settings: mouse, liver microsomes; remark: listed apart in the source
Description: Metabolic stability in mouse liver microsomes assessed as half life at 1 uM preincubated with compound for 10 mins followed by NADPH addition and measured upto 60 mins by LC-MS/MS analysis

[5] = biological target: Fatty acid-binding protein, heart (Homo sapiens, UniProt P05413)
Description: Displacement of 1,8-ANS from N-terminal 6His-tagged full length FABP3 (unknown origin) expressed in Escherichia coli ER2566 assessed as inhibition constant preincubated with compound for 10 mins followed by 1,8-ANS addition and measured after 3 mins by fluorescence based analysis

[6] = biological target: Fatty acid-binding protein, adipocyte (Homo sapiens, UniProt P15090)
Description: Displacement of 1,8-ANS from N-terminal 6His-tagged full length FABP4 (unknown origin) expressed in Escherichia coli ER2566 assessed as inhibition constant preincubated with compound for 10 mins followed by 1,8-ANS addition and measured after 3 mins by fluorescence based analysis

[7] = system: FABP3 versus FABP4; experiment: in vitro; settings: probe 1,8-ANS
Description: Selectivity index, ratio of Ki for displacement of 1,8-ANS from N-terminal 6His-tagged full length FABP3 (unknown origin) expressed in Escherichia coli ER2566 to Ki for displacement of 1,8-ANS from N-terminal 6His-tagged full length FABP4 (unknown origin) expressed in Escherichia coli ER2566

Chain of Fatty acid-binding protein, heart (P05413 whole entry): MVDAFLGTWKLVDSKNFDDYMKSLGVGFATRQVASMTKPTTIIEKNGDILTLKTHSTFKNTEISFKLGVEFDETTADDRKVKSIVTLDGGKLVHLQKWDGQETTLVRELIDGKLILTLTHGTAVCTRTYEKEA
Chain of Fatty acid-binding protein, adipocyte (P15090 whole entry): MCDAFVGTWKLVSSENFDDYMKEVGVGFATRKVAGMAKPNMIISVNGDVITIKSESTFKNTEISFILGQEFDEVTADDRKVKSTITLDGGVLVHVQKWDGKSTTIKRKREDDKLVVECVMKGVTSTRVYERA

Ki [5] [µM]	Compound	also measured
	O=C(O)c1ccccc1Nc1cccc(Cl)c1-c1ccccc1	half-life at 1 h, 1 µM [1]: 33.5 min; Fh at 1 h, 1 µM [2]: 24%; Fh at 1 h, 1 µM [3]: 39.9%; half-life at 1 h, 1 µM [4]: 31.4 min
15	Cc1cccc(Nc2cccc(Cl)c2-c2ccccc2)c1C(=O)O	
7.46	Cc1ccc(Nc2cccc(Cl)c2-c2ccccc2)c(C(=O)O)c1	
5.18	O=C(O)c1c(Cl)cccc1Nc1cccc(Cl)c1-c1ccccc1	
0.37	O=C(O)c1cc(F)ccc1Nc1cccc(Cl)c1-c1ccccc1	
2.19	COc1ccc(Nc2cccc(Cl)c2-c2ccccc2)c(C(=O)O)c1	Ki [6]: 0.359 µM; selectivity ratio [7]: 6
1.29	O=C(O)c1cc(Cl)ccc1Nc1cccc(Cl)c1-c1ccccc1	
15.4	Cc1cccc(Nc2cccc(Cl)c2-c2ccc3c(c2)CCO3)c1C(=O)O	
4	Cc1c(F)ccc(Nc2cccc(Cl)c2-c2ccccc2)c1C(=O)O	
> 5	COc1cccc(Nc2cccc(Cl)c2-c2ccccc2)c1C(=O)O	
7.51	Cc1c(F)ccc(Nc2cccc(Cl)c2-c2ccc3c(c2)CCO3)c1C(=O)O	
